From publication PMC9025336 (Antibiotics, 2022)
Converted amounts (≈) assume the structure as drawn. Peptide text beside a SMILES is read from it. * marks the point of attachment. Orn(α-tetramethylguanidino) = CN(C)C(=N[C@@H](CCCN)C(=O)*)N(C)C

Assays:
[1] = test system: E. coli BW25113 ΔsbmA +psbmA_A31G/G219T; type: cell-based, Escherichia coli
Method: The minimal inhibitory concentrations (MIC) were determined at least twice in triplicate using a liquid broth microdilution assay in sterile 96-well plates and a total volume of 100 μL per well. Aqueous peptide solutions were serially 2-fold diluted in 25% MHBII or 33% TSB medium in a volume of 50 µL. An overnight culture was diluted in 25% MHBII or 33% TSB medium to 1.5 × 10^7 CFU/mL, and an aliquot of 50 μL was added to each well. The final cell count in each well was 7.5 × 10^6 CFU/mL. The plates were incubated at 37 °C for 20 ± 2 h. The turbidity of each well was measured at a wavelength of 600 nm. The MIC was defined as the lowest peptide concentration where the turbidity was identical to medium only.

[2] = test system: 70S ribosome, ribosomal binding site of Api805; assay: Fluorescence polarization competition with cf-Api805; set-up: species or system Escherichia coli; details: Figure S2, twice in triplicate
Method: Ki was determined for ribosome extracts using cf-labeled and unlabeled peptides in ribosome preparation buffer. Black 384-well plates were prepared as described above. Unlabeled peptides or antibiotics (20 μL, 656 μmol/L) were added and 2-fold serially diluted in 23 wells in ribosome preparation buffer. […] The fluorescence polarization was measured on a […] microplate reader in the top read position (λexc = 485 nm, λem = 535 nm) in triplicate on at least two different days. […] Inhibition constants, Ki, were calculated as described by Mathias and Jung. page 9: 140 140 120 120 100 100 80 80 60 60 40 40 […]. […]. […] 0 0 -20 -20 10 -2 1 10 2 10 4 10 6 10 -2 1 10 2 10 4 10 6 Pept ide Concent r at ion [ nM] Pept ide Concent r at ion [ nM] 140 140 120 120 100 100 80 80 60 60 40 40 20 Chlor […] ol vs. […] -20 -20 10 -2 1 10 2 10 4 10 6 10 -2 1 10 2 10 4 10 6 Ant ibiot ic Concent r at ion [ nM] Antibiotic Concentration [nM] 140 120 100 80 60 40 […] -20 10 -2 1 10 2 10 4 10 6 Ant ibiot ic Concent r at ion [ nM] Figure S2. […] tested as control in competition with Api137 or erythromycin. Experiments were done twice in triplicates. Error bars show the standard deviation of all six replicates. The horizontal dotted line separates positive and negative ranges on the Y-axis. - S9 - (also on this page, place not known: […]

[3] = test system: in vitro protein translation (GFP expression); assay: In vitro translation assay (GFP fluorescence, PureExpress Delta RF123 kit); type: biochemical, Escherichia coli
Method: Next, we investigated whether Api805 inhibits protein translation in vitro by recording the fluorescence of expressed GFP (Figure 2). As Api137 inhibits protein translation by trapping release factors RF1 and RF2, the fluorescence was measured in the absence of release factor and in the presence of RF1 or RF2. We used a ribosome concentration of 2.4 µmol/L, which is ~[…] than the ribosome concentration in E. coli. […] Furthermore, RF2 of PureExpress® was isolated from an E. coli K-12 strain that carries an A246T substitution, reducing its susceptibility to apidaecin [15, 23]. The inhibition was measured for peptide concentrations of 0.05, 5, and 50 µmol/L relative to the fluorescence obtained without a PrAMP (100%).
GFP was expressed using an NEB PureExpress Delta RF123 kit (New England Biolabs, Ipswich, MA, USA). The sfGFP DNA template coding for a UAA stop codon was amplified from the pY71sfGFP plasmid by PCR using sfGFP primers (Table S3). Release factor 1 (RF1) included in the kit was 50-fold diluted (v/v) in freshly prepared 1x pure system buffer (PSB, 1 mol/L magnesium acetate, 0.5 mol/L K3PO4 (pH 7.3), 1 mol/L potassium glutamate, 1 mol/L NH4Cl, 0.5 mol/L CaCl2, 1 mol/L spermidine, 0.1 mol/L putrescine, 0.1 mol/L DTT). GFP was expressed in a freshly prepared mixture of kit solution A (2 µL), kit solution B (1.5 µL), 50-fold diluted RF1 (0.5 µL), sfGFP template (0.1325 pmol, 35 ng) or water as control (0.25 µL), PSB (0.25 µL), and PrAMP (50, 5, 0.05 or 0 µmol/L) dissolved in water (0.5 µL). The reaction mixture was transferred into a black 384-well plate (flat bottom, Greiner Bio-One GmbH), covered with a lid, and incubated in a microplate reader (Gemini EM, Molecular Devices) at 37 °C for two hours. The fluorescence was recorded every 10 min (λexc = 485 nm, λem = 535 nm).

[4] = highest peptide concentration (50 µmol/L), relative to fluorescence without PrAMP, 37 °C, 2 h, twice in duplicate

SMILES | MIC, 25% MHBII ([1]; BW25113 ΔsbmA +psbmA_A31G/G219T, 25% MHBII containing IPTG (0.1 mmol/L)) [µg/mL] | MIC, 33% TSB ([1]; BW25113 ΔsbmA +psbmA_A31G/G219T, 33% TSB containing IPTG (0.1 mmol/L)) [µg/mL] | inhibition of the binding of cf-labeled Api805 [2] | inhibition of protein translation in the absence of RF1, in words ([3]; GFP fluorescence, Figure 2) | inhibition of protein translation in the presence of RF1 [3, 4] | change of MIC after transformation of sbmA_A31G/G219T-harboring plasmid ([1]; compared with E. coli BW25113 ΔsbmA) | inhibition of protein translation in the absence of RF1 [3, 4]
CC[C@H](C)[C@H](NC(=O)[C@H](Cc1ccc(O)cc1)NC(=O)[C@@H](NC(=O)[C@@H]1CCCN1C(=O)[C@H](CCCNC(=N)N)NC(=O)[C@H](CC(N)=O)NC(=O)[C@H](CC(N)=O)NC(=O)[C@H](CCCN)N=C(N(C)C)N(C)C)C(C)C)C(=O)N1CCC[C@H]1C(=O)N[C@@H](CCCNC(=N)N)C(=O)N1CCC[C@H]1C(=O)N[C@@H](CCCNC(=N)N)C(=O)N1CCC[C@H]1C(=O)N1CCC[C@H]1C(=O)N[C@@H](Cc1c[nH]cn1)C(=O)N1CCC[C@H]1C(=O)N[C@@H](CCCNC(=N)N)C(=O)N[C@@H](CC(C)C)C(=O)O [Api137] ({Orn(α-tetramethylguanidino)}-NNRPVYIPRPRPPHPRL-OH) | 2 (≈ 0.873 µM) | 8 (≈ 3.49 µM) | none inhibited | only a slight inhibition | ~ 77% | – | –
CC[C@H](C)[C@H](NC(=O)[C@@H]1CCCN1C(=O)[C@H](CCCNC(=N)N)NC(=O)[C@H](CC(N)=O)NC(=O)[C@H](CC(N)=O)NC(=O)CN)C(=O)N[C@@H](Cc1ccc(O)cc1)C(=O)N[C@H](C(=O)N1CCC[C@H]1C(=O)N[C@@H](CCCNC(=N)N)C(=O)N1CCC[C@H]1C(=O)N[C@@H](CCCNC(=N)N)C(=O)N1CCC[C@H]1C(=O)N1CCC[C@H]1C(=O)N[C@@H](Cc1c[nH]cn1)C(=O)N1CCC[C@H]1C(=O)N[C@@H](CCCNC(=N)N)C(=O)N1CCC[C@H]1C(=O)N[C@H](C(=O)N[C@@H](CCCNC(=N)N)C(=O)N[C@H](C(=O)O)C(C)C)[C@@H](C)CC)[C@@H](C)CC [Api805] (H-GNNRPIYIPRPRPPHPRPIRV-OH; N-terminus assumed) | – | – | did not inhibit | – | ~ 52% | not altered | ~ 38%
